Assay results published in patent US8809283B2, “Proteasome inhibitors and uses thereof” (Natuderm, LLC, priority 2005, dated 2014).
Read-outs that look alike come from different tables or passages of the source.

Tests used:
SVR cells = assay: SVR cell proliferation assay; assay type: cell-based; conditions: 10 mg/ml, 72 hours exposure, Coulter Counter
Method: The filtered aqueous extract was lyophilized to a dry powder, which was dissolved in distilled water and analyzed by HPLC, and 5 fractions were collected. HPLC fractions were lyophilized. Each fraction was reconstituted into 10 mg/ml solutions, and the ability to inhibit proliferation of SVR cells was tested.
SVR cells (1×10^4) were plated for 24 hours in a 24-well plate. The media was then changed to DMEM containing purified extract at a concentration of 10 mg/ml. Cells were exposed to drug for 72 hours and were counted with a Coulter Counter (Coulter, Hialeah, Fla.) according to the method of Lamontagne et al (LaMontagne et al., (2000) Am. J. Pathol. 157, 1937-1945). […] In order to determine the component of mate tea responsible, the aqueous extract was fractionated by HPLC, and the ability of the fractions to inhibit SVR cell proliferation was assessed. […] The structures of T-2, T-5, and T-6 were elucidated by proton NMR and mass spectroscopy (FIG. 1). […] The NMR spectra of the compounds are shown below.

[1] = target: purified prokaryotic 20S proteasome (Methanosarcina thermophila, UniProt Q9P992); assay: Chymotrypsin-like activity of purified 20S proteasome (fluorogenic substrate Suc-Leu-Leu-Val-Tyr-AMC); assay type: biochemical; conditions: for inhibition at 100 µM: read-out: inhibition of proteasomal chymotrypsin-like activity
Method: This example describes the how to analyze the inhibitory effect of isolated fractions of mate tea in vitro, using purified 20S proteasome. The chymotrypsin-like activity of purified 20S proteasome was measured as previously described (Nam et al., (2001) J. Biol. Chem. 276, 13322-13330). Briefly, purified prokaryotic 20S proteasome (0.5 μg) was incubated with 20 μM fluorogenic peptide substrate, Suc-Leu-Leu-Val-Tyr-AMC for 30 min at 37° C. in 100 μl of assay buffer (50 mM Tris-HCl, pH 7.5), with or without a mate tea fraction at indicated concentrations. After incubation, production of hydrolyzed 7-amido-4-methyl-coumarin (AMC) groups was measured using a multi-well plate VersaFluor™ Fluorometer with an excitation filter of 380 nm and an emission filter of 460 nm (Bio-Rad).
The quinic acid esters resemble the proteasome inhibitor (−)-epigallocatechin gallate [(−)-EGCG] in that they contain hydroxylated aromatic carboxylic acids esterified to a polyhydroxylated aliphatic ring (FIG. 3). Based upon this similarity, and the previous finding that epigallocatechin gallate is an inhibitor of proteasomes (Ren et al., (2000) Oncogene 19, 1419-1427; Nam et al., (2001) J. Biol. Chem. 276, 13322-13330)), the ability of fractions T-2, T-5, and T-6 to inhibit proteasome function was assessed. To determine the ability of quinic acid esters to inhibit proteasome activity, a fluorescent substrate activity assay was performed with purified 20S proteasome. Epigallocatechin gallate (EGCG, Sigma Chemical Company, St Louis, Mo.) was used as a positive control for proteasome inhibition. To ensure complete inhibition of the proteasome, 100 μM EGCG was used. The compound 3,5-dicaffeoylquinic acid (3,5-DCQ) was tested against proteasome activity in three different concentrations: 20, 100, and 200 μg/ml, which correspond to 37, 183, and 366 μM respectively (FIG. 4).

[2] = test system: inositol-1,4,5-triphosphate 3 kinase (GgIP3K-A); assay: Inositol-1,4,5-triphosphate 3 kinase activity assay (Mayr et al.); assay type: biochemical; conditions: FIG. 6
Method: An assay was performed as described in Mayr et al., (2005) J. Biol. Chem. 280: 13229-13240, incorporated herein by reference. […] Inhibition of the kinase activity may be important in HIV.

[3] = target: T1, 26S proteasome in Jurkat T cell extracts (Homo sapiens, UniProt P28074); assay: Proteasome chymotrypsin-like activity in Jurkat T cell extracts; assay type: biochemical; conditions: 60 min at 37° C.
T1 construct: Whole cell extracts (20 μg) of Jurkat T cells; endogenous in cells; host or cells: Jurkat T cells (whole cell extract)
T1 sequence (P28074 60-263): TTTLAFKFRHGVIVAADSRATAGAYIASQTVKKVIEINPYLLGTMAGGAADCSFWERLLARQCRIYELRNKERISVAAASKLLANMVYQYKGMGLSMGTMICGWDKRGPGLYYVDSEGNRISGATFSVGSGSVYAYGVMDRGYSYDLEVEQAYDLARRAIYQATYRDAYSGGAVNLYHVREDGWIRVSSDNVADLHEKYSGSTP
Method: This example describes the how to analyze the inhibitory effect of isolated fractions of mate tea in vivo, using cell extracts of the Jurkat cancer cell line. Whole cell extracts (20 μg) of Jurkat T cells were incubated for 60 min at 37° C. with 20 μM of fluorogenic peptide substrate Suc-Leu-Leu-Val-Tyr-AMC in […] of the assay buffer, with or without a mate tea fraction at indicated concentrations. The hydrolyzed AMCs were quantified as described above.
The abilities of 3,5-DCQ and neochlorogenic acid to inhibit the 26S proteasome activity in Jurkat cell extracts was tested.

Jurkat T cells = assay: Cell cycle analysis of Jurkat T cells by flow cytometry (propidium iodide); assay type: cell-based; conditions: for arrest of Jurkat cells in G2/M phase: 2 μg/ml for 24 h; for increase of G2/M population: 20 μg/ml for 24 h
Method: To investigate the inhibitory effect of the fractions on cell cycle, Jurkat cells exposed to each fraction were analyzed by flow cytometry. Cell cycle analysis based on DNA content was performed as described previously (See Nam et al., 2001). The cell cycle distribution is shown as the percentage of cells containing G1, S, G2, and M DNA judged by propidium iodide staining.
The proteasome-inhibitory potencies of 3,5-DCQ and neochlorogenic acid were identified as being associated with growth-inhibitory activity in vivo, based on treating Jurkat T cells with each compound at a concentration of 2 or 20 μg/ml for 24 h. After treatment, the cells were harvested and assayed by flow cytometry. […] In contrast, neochlorogenic acid at the same concentrations had no effects.

[4] = at 100 μM, purified 20S proteasome
[5] = at 20 μg/ml (37 μM 3,5-DCQ; 56 μM neochlorogenic acid)
[6] = at 100 μg/ml (183 μM 3,5-DCQ; 282 μM neochlorogenic acid)

Chain of purified prokaryotic 20S proteasome (Q9P992 10-210): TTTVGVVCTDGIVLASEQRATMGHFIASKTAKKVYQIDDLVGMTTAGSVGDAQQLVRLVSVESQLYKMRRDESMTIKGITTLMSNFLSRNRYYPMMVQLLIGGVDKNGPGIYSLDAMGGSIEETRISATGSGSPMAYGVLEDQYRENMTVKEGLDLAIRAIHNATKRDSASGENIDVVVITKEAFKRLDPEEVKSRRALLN
Chain of purified prokaryotic 20S proteasome (Q59565 whole entry, further chain): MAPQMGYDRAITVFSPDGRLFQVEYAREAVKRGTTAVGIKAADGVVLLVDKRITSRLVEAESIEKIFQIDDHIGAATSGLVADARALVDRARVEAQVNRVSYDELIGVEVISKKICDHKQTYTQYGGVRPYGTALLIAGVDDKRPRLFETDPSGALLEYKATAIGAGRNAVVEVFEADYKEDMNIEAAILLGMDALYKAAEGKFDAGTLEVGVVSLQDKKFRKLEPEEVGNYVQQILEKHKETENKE

O=C(/C=C/c1ccc(O)c(O)c1)O[C@@H]1[C@H](O)C[C@@](O)(C(=O)O)C[C@H]1OC(=O)/C=C/c1ccc(O)c(O)c1 (stereo in doubt) [T-6, 3,4-Dicaffeoylquinic acid]
inhibition of SVR cell proliferation (SVR cells): most potent inhibitory effects | inhibition of proteasomal chymotrypsin-like activity [1, 4]: 40%

CC(C)(C)c1cc(CCC(=O)OCC(COC(=O)CCc2cc(C(C)(C)C)c(O)c(C(C)(C)C)c2)(COC(=O)CCc2cc(C(C)(C)C)c(O)c(C(C)(C)C)c2)COC(=O)CCc2cc(C(C)(C)C)c(O)c(C(C)(C)C)c2)cc(C(C)(C)C)c1O [PTTC, Pentaerythritol tetrakis (3,5-di-tert-butyl-4-hydroxyhydrocinnamate), reference compound]
inhibition of IP-3 kinase activity (qualitative) [2]: inhibit | activity against proteasomes (qualitative) ([1]; used as a control, chymotrypsin-like proteasome activity (FIG. 5)): activity against proteasomes

O=C(C=Cc1ccc(O)c(O)c1)OC1CC(O)(C(=O)O)CC(O)C1O (stereo not shown) [neochlorogenic acid, 5-Caffeoylquinic acid]
inhibition of 26S proteasome activity in Jurkat cell extracts [3, 5]: ~30% | inhibition of 26S proteasome activity in Jurkat cell extracts [3, 6]: ~75% | inhibition of SVR cell proliferation (SVR cells): most potent inhibitory effects | arrest of Jurkat cells in G2/M phase (Jurkat T cells): no effects | increase of G2/M population (Jurkat T cells): no effects | inhibition at 100 µM [1]: 21%

O=C(C=Cc1ccc(O)c(O)c1)OC1CC(O)(C(=O)O)CC(OC(=O)C=Cc2ccc(O)c(O)c2)C1O (stereo not shown) [3,5-DCQ, 3,5-Dicaffeoylquinic acid]
inhibition at 20 µg/mL [3, 5]: ~50% | inhibition at 100 µg/mL [3, 6]: ~85% | inhibition of SVR cell proliferation (SVR cells): most potent inhibitory effects | arrest of Jurkat cells in G2/M phase (Jurkat T cells): very slight arrest | increase of G2/M population (Jurkat T cells): ~10% | inhibition at 100 µM [1, 4]: 60%
